Like-named read-outs stand apart in the source and are kept apart here.
What was measured:
S. aureus (6538) = assay: Minimum inhibitory concentration (MIC) test, serial dilution; assay type: cell-based, Staphylococcus aureus
Text: (§1) Surfactants of the present disclosure have been shown in a standard protocol to assess antimicrobial activities called minimum inhibitory concentration (MIC) tests.
(§2) The antimicrobial properties of surfactants were examined using known methods and standard protocols, and various types of microorganisms as treatment targets. More specifically a minimum inhibitory concentration (MIC) test protocol was applied, using serial dilution method, giving concentration-dependent microorganism growth inhibition measurements against gram positive (e.g., Streptococcus mutans, which is anaerobic, and Staphylococcus aureus, which is usually aerobic but can grow also anaerobically), gram negative (e.g., Escherichia coli, which is anaerobic, or Pseudomonas aeruginosa, which is aerobic).
(§3) Bacteria were propagated overnight in a suitable growth medium, which was a Tryptic Soy Broth. Prior to testing, the concentrations of the test organisms were established using a spectrophotometer that can measure optical density. Those bacterial samples were then diluted to about 1E3 to 1E4 CFU/mL. Thereafter, […] of the bacterial cultures thus prepared were inoculated into test wells of a 96-well plate, each containing suitable growth media, which was Tryptic Soy Agar, and once the bacterial cultures were inoculated, these wells were then treated with the test specimen, serially diluted, incubated at a temperature of 37+/−1° C. and relative humidity of not less than 90% for about 24+/−1 hour.
(§4) Test surfactants were prepared into dilution series. All dilutions were conducted serially using a multichannel pipetter into 96-well microtiter plates.
(§5) The MIC was then used to determine the approximate concentration of the test surfactant at which there was inhibition of bacterial growth. […]
(§6) Test measurements were made on replicate 96-well plates, and reported as the rounded whole number average of the determined MIC. […] Measurement variability was then reported based on the determined average in the form of MIC+/−.

S. mutans (25715) = assay: as above; assay type: cell-based, Streptococcus mutans
Text: as §1, §2, §3, §4, §5, §6

E. coli (8739) = assay: as above; assay type: cell-based, Escherichia coli; conditions: 24 hours, serial dilution 1.7 fold
Text: as §1, §2
(§7) Bacteria were propagated overnight in a suitable growth medium, which was a Tryptic Soy Broth. Prior to testing, the concentrations of the test organisms were established using a spectrophotometer that can measure optical density. Those bacterial samples were then diluted to about 1E3 to 1E4 CFU/mL. […]
as §6

P. aeruginosa (9027) = assay: as above; assay type: cell-based, Pseudomonas aeruginosa; conditions: 24 hours, serial dilution 1.7 fold, 400 ppm max
Text: as §1, §2, §7, §6

[1] = Critical micelle concentration and minimum surface tension from surface tension versus concentration in water (Wilhelmy plate method); assay type: physicochemical; conditions: for critical micelle concentration (CMC) / plateau value of minimum surface tension: in water; for interfacial activity / surfactant properties (in words): judged from CMC and minimum surface tension
Text: These properties may be measured and described by various methods. One method by which surfactants may be described is by the molecule's critical micelle concentration (CMC). CMC may be defined as the concentration of a surfactant at which micelles form, and above which all additional surfactant is incorporated into micelles.
As surfactant concentration increases, surface tension decreases. Once the surface is completely overlaid with surfactant molecules, micelles begin to form. This point represents the CMC, as well as the minimum surface tension. Further addition of surfactant will not further affect the surface tension. CMC may therefore be measured by observing the change in surface tension as a function of surfactant concentration. One such method for measuring this value is the Wilhemy plate method. A Wilhelmy plate is usually a thin iridium-platinum plate attached to a balance by a wire and placed perpendicularly to the air-liquid interface. The balance is used to measure the force exerted on the plate by wetting. This value is then used to calculate the surface tension (γ) according to Equation 1: […]
wherein I is equal to the wetted perimeter (2w+2d, in which w and d are the plate thickness and width, respectively) and cos θ, the contact angle between the liquid and the plate, is assumed to be 0 in the absence of an extant literature value.
Nuclear magnetic resonance (NMR) spectroscopy was performed on a Bruker 500 MHz spectrometer. The critical micelle concentration (CMC) was determined by the Wilhelmy plate method at 23° C. with a tensiometer (DCAT 11, DataPhysics Instruments GmbH) equipped with a Pt—Ir plate. Dynamic surface tension was determined with a bubble pressure tensiometer (Krüss BP100, Krüss GmbH), at 23° C. Contact angle was determined with the optical contact angle goniometer (OCA 15 Pro, DataPhysics GmbH) equipped with a digital camera.

[2] = 24 hours, serial dilution 1.7 fold, 20 ppm max

| Compound | critical micelle concentration (CMC) ([1]; 23° C.) | plateau value of minimum surface tension ([1]; 23° C.) | interfacial activity / surfactant properties (in words) [1] | other results |
| --- | --- | --- | --- | --- |
| CCCCCCCCCCCCCC[N+](C)(C)Cc1ccccc1.[Cl-] [ADBAC, reference compound] | – | – | – | MIC (S. aureus (6538); [2]): 7 +/− 3 ppm; MIC (S. mutans (25715); [2]): 7 +/− 3 ppm; MIC (E. coli (8739); 20 ppm max): 16 +/− 7 ppm; MIC (P. aeruginosa (9027)): 48 +/− 20 ppm |
| C[N+](C)(CCCCCC(=O)NCCC[Si](O[Si](C)(C)C)(O[Si](C)(C)C)O[Si](C)(C)C)CC(=O)O [Comparative Surfactant, N-(carboxymethyl)-6-((3-(1,1,1,5,5,5-hexamethyl-3-((trimethylsilyl)oxy)trisiloxan-3-yl)propyl)amino)-N,N-dimethyl-6-oxohexan-1-aminium bromide, reference compound] | about 17.28 mmol | about 29.16 mN/m | inferior surfactant properties | – |
| C[N+](C)(CCCCCC(=O)NCCC[Si](O[Si](C)(C)C)(O[Si](C)(C)C)O[Si](C)(C)C)Cc1ccccc1 [Surfactant 1, N-benzyl-6-((3-(1,1,1,5,5,5-hexamethyl-3-((trimethylsilyl)oxy)trisiloxan-3-yl)propyl)amino)-N,N-dimethyl-6-oxohexan-1-aminium bromide] | – | around 20.67 mN/m | outstanding interfacial activity | critical micelle concentration (CMC) ([1]; pH 8, 23° C.): about 9.883 mmol |
| CCOC(=O)C[N+](C)(C)CCCCCC(=O)NCCC[Si](O[Si](C)(C)C)(O[Si](C)(C)C)O[Si](C)(C)C [Surfactant 2, N-(2-ethoxy-2-oxoethyl)-6-((3-(1,1,1,5,5,5-hexamethyl-3-((trimethylsilyl)oxy)trisiloxan-3-yl)propyl)amino)-N,N-dimethyl-6-oxohexan-1-aminium bromide] | about 0.2171 mmol | around 20.36 mN/m | outstanding interfacial activity | – |
| C=CC[N+](C)(C)CCCCCC(=O)NCCC[Si](O[Si](C)(C)C)(O[Si](C)(C)C)O[Si](C)(C)C [Surfactant 3, N-allyl-6-((3-(1,1,1,5,5,5-hexamethyl-3-((trimethylsilyl)oxy)trisiloxan-3-yl)propyl)amino)-N,N-dimethyl-6-oxohexan-1-aminium iodide] | about 1.3599 mmol | about 20.67 mN/m | outstanding interfacial activity | – |
| C#CC[N+](C)(C)CCCCCC(=O)NCCC[Si](O[Si](C)(C)C)(O[Si](C)(C)C)O[Si](C)(C)C [Surfactant 4, 6-((3-(1,1,1,5,5,5-hexamethyl-3-((trimethylsilyl)oxy)trisiloxan-3-yl)propyl)amino)-N,N-dimethyl-6-oxo-N-(prop-2-yn-1-yl)hexan-1-aminium bromide] | about 0.2419 mmol | about 20.54 mN/m | outstanding interfacial activity | – |
| COCCOCC[N+](C)(C)CCCCCC(=O)NCCC[Si](O[Si](C)(C)C)(O[Si](C)(C)C)O[Si](C)(C)C [Surfactant 5, 6-((3-(1,1,1,5,5,5-hexamethyl-3-((trimethylsilyl)oxy)trisiloxan-3-yl)propyl)amino)-N-(2-(2-methoxyethoxy)ethyl)-N,N-dimethyl-6-oxohexan-1-aminium bromide] | about 0.4622 mmol | about 20.40 mN/m | outstanding interfacial activity | – |
| CCOP(=O)(CCC[N+](C)(C)CCCCCC(=O)NCCC[Si](O[Si](C)(C)C)(O[Si](C)(C)C)O[Si](C)(C)C)OCC [Surfactant 6, N-(3-(diethoxyphosphoryl)propyl)-6-((3-(1,1,1,5,5,5-hexamethyl-3-((trimethylsilyl)oxy)trisiloxan-3-yl)propyl)amino)-N,N-dimethyl-6-oxohexan-1-aminium bromide] | about 0.3989 mmol | about 20.48 mN/m | outstanding interfacial activity | MIC (S. aureus (6538); Staphylococcus aureus, 24 h): 138 µg/mL; MIC (S. mutans (25715); Streptococcus mutans, 24 h): 81 µg/mL |
| C[N+](C)(CCCO)CCCCCC(=O)NCCC[Si](O[Si](C)(C)C)(O[Si](C)(C)C)O[Si](C)(C)C [Surfactant 7, 6-((3-(1,1,1,5,5,5-hexamethyl-3-((trimethylsilyl)oxy)trisiloxan-3-yl)propyl)amino)-N-(3-hydroxypropyl)-N,N-dimethyl-6-oxohexan-1-aminium iodide] | about 0.4568 mmol | about 20.61 mN/m | outstanding interfacial activity | MIC (E. coli (8739); Escherichia coli, 400 ppm max, read-out: MIC): 81 µg/mL; MIC (P. aeruginosa (9027); Pseudomonas aeruginosa, read-out: MIC): 81 µg/mL |
| C[N+](C)(CCO)CCCCCC(=O)NCCC[Si](O[Si](C)(C)C)(O[Si](C)(C)C)O[Si](C)(C)C [Surfactant 8, 6-((3-(1,1,1,5,5,5-hexamethyl-3-((trimethylsilyl)oxy)trisiloxan-3-yl)propyl)amino)-N-(2-hydroxyethyl)-N,N-dimethyl-6-oxohexan-1-aminium iodide] | about 0.9986 mmol | about 20.41 mN/m | outstanding interfacial activity | – |
| C[N+](C)(CCCCCC(=O)O)CCCCCC(=O)NCCC[Si](O[Si](C)(C)C)(O[Si](C)(C)C)O[Si](C)(C)C [Surfactant 9, N-(5-carboxypentyl)-6-((3-(1,1,1,5,5,5-hexamethyl-3-((trimethylsilyl)oxy)trisiloxan-3-yl)propyl)amino)-N,N-dimethyl-6-oxohexan-1-aminium bromide] | about 0.2237 mmol | about 20.52 mN/m | excellent interfacial activity | MIC (S. aureus (6538); Staphylococcus aureus, 24 hours, serial dilution 1.7 fold, 400 ppm max, read-out: MIC): 138 µg/mL; MIC (S. mutans (25715); Streptococcus mutans, 24 hours, serial dilution 1.7 fold, 400 ppm max, read-out: MIC): 81 µg/mL |
| C[N+](C)(CCCCCC(=O)NCCC[Si](O[Si](C)(C)C)(O[Si](C)(C)C)O[Si](C)(C)C)CCC[N+](C)(C)CCCCCC(=O)NCCC[Si](O[Si](C)(C)C)(O[Si](C)(C)C)O[Si](C)(C)C [Surfactant 10, N^1,N^3-bis(6-((3-(1,1,1,5,5,5-hexamethyl-3-((trimethylsilyl)oxy)trisiloxan-3-yl)propyl)amino)-6-oxohexyl)-N^1,N^1,N^3,N^3-tetramethylpropane-1,3-diaminium dibromide] | about 0.0631 mmol | about 22.12 mN/m | has interfacial activity | – |
